Test results reported in patent publication US7781565B2 (priority 2006, dated 2010).
“Also recorded” adds a separate entry of the source.

Each substance was assayed on NCI-60 cell lines.
Format: cell-based, human

| Substance | Cell Line (NCI-60 cell line the peptide and its motif are associated with) | Cell Line the peptide is associated with (peptide recovered from phage library selection on this NCI-60 cell line) | Cell Line (NCI-60 cell line the peptide is associated with) | Cell Line with which the peptide (and its tripeptide motif) is associated |
| --- | --- | --- | --- | --- |
| GSVSHRR | SK-OV-3-3 Ovarian |  |  |  |
| GSVVSSW |  | ACHN Renal |  |  |
| GSWARGY |  |  | HCT-15 Colon |  |
| GTFGVLG |  |  |  | Hop-62-Lung |
| GTGAAVF |  | RXF393 Renal |  |  |
| GTHSGLR | SK-MEL-2 Melanoma |  |  |  |
| GTLGGRV |  |  | HT-29 Colon |  |
| GTLGVLS | UACC62 Melanoma |  |  |  |
| GTLRVGS |  |  | HT-29 Colon |  |
| GTPAVSY |  | NCI/ADR-RES Breast |  |  |
| GVAGGAT |  |  | SW620-Colon |  |
| GVAGLRW |  |  | SW620-Colon |  |
| GVAIGRL |  | CAIK-1 Renal |  |  |
| GVGGGAG |  | MDA-MB-435-Breast |  |  |
| GVGGLSS |  | HS 578 T Breast |  |  |
| GVGGRQS |  | TK-10 Renal |  |  |
| GVIGRGS | UACC62 Melanoma |  |  |  |
| GVLARVT |  |  |  | CCRF-CEM Leukemia |
| GVLEGRR | UACC 257 Melanoma |  |  |  |
| GVLGCDG | PC3 Prostate |  |  |  |
| GVLHSIA |  |  |  | K-562-Leukemia |
| GVLLWRP | UACC62 Melanoma |  |  |  |

| Substance | Cell Line (NCI-60 cell line the peptide and its motif are associated with) | Cell Line the peptide is associated with (peptide recovered from phage library selection on this NCI-60 cell line) | Cell Line (NCI-60 cell line the peptide is associated with) | Cell Line with which the peptide (and its tripeptide motif) is associated |
| --- | --- | --- | --- | --- |
| GVLPVVT |  |  | HCT-15 Colon |  |
| GVLSDRS | SK-MEL-2 Melanoma |  |  |  |
| GVLTIGA |  | BT-549 Breast |  |  |
| GVLTRGN | OVCAR-8 Ovarian |  |  |  |
| GVNGSVS | SK-MEL-28 Melanoma |  |  |  |
| GVRGAAR |  |  | HCT-15 Colon |  |
| GVRGGGD |  | CAIK-1 Renal |  |  |
| GVRPFPR |  |  |  | Hop-62-Lung |
| GVRRSLL |  |  | SNB-75 CNS |  |
| GVRSITL |  | ACHN Renal |  |  |
| GVRSMPV |  |  | LOX-IMVI Melanoma |  |
| GVRTAGP |  |  |  | A549-Lung |
| GVRWNWS |  | RXF393 Renal |  |  |
| GVRYLRT |  |  | HCT-116 Colon |  |
| GVSALSL |  |  | HT-29 Colon |  |
| GVSGLSR | DU-145 Prostate |  |  |  |
| GVSGTVS | IGROV1 Ovarian |  |  |  |
| GVSIRQL |  |  |  | H460-Lung |
| GVSISDG |  | SN12C Renal |  |  |
| GVSIYDL |  | SN12C Renal |  |  |
| GVSKVRA |  |  |  | A549-Lung |
| GVSTGFT |  |  |  | K-562-Leukemia |

| Substance | Cell Line (NCI-60 cell line the peptide and its motif are associated with) | Cell Line the peptide is associated with (peptide recovered from phage library selection on this NCI-60 cell line) | Cell Line (NCI-60 cell line the peptide is associated with) | Cell Line with which the peptide (and its tripeptide motif) is associated |
| --- | --- | --- | --- | --- |
| GVVQAVS | SK-MEL-5 Melanoma |  |  |  |
| GVWLRGS |  | RXF393 Renal |  |  |
| GVYWLRS |  | TK-10 Renal |  |  |
| GWGGGSA |  |  | MALME-3M Melanoma |  |
| GWHGPSH |  |  |  | A549-Lung |
| GWLNAAV | UACC 257 Melanoma |  |  |  |
| GWSASLG |  |  | HCT-116 Colon |  |
| GWTMAAS |  | TK-10 Renal |  |  |
| GWVAVSC |  |  | LOX-IMVI Melanoma |  |
| GYARGSG |  | RXF393 Renal |  |  |
| GYLGRLP |  | NCI/ADR-RES Breast |  |  |
| GYSRASD |  |  | HT-29 Colon |  |
| HAAHGLV |  |  |  | Hop-92-Lung |
| HAAVEPS | OVCAR-5 Ovarian |  |  |  |
| HAAVMSL |  |  | HCT-15 Colon |  |
| HADVLVS | DU-145 Prostate |  |  |  |
| HAELVSL |  |  | KM-12C Colon |  |
| HAGLLVV |  | TK-10 Renal |  |  |
| HAGSRAS | IGROV1 Ovarian |  |  |  |
| HAPGLRV |  |  | MALME-3M Melanoma |  |
| HAWDRGV |  | MDA-MB-231 Breast |  |  |
| HFIRGSV |  |  | HT-29 Colon |  |

| Substance | Cell Line (NCI-60 cell line the peptide and its motif are associated with) | Cell Line the peptide is associated with (peptide recovered from phage library selection on this NCI-60 cell line) | Cell Line (NCI-60 cell line the peptide is associated with) | Cell Line with which the peptide (and its tripeptide motif) is associated |
| --- | --- | --- | --- | --- |
| HGGPGAV |  |  | LOX-IMVI Melanoma |  |
| HGGRARL |  |  | HT-29 Colon |  |
| HGGRYRH | UACC 257 Melanoma |  |  |  |
| HGGSNDR |  | A498 Renal |  |  |
| HGLGSGT |  |  |  | RPMI-8226-Leukemia |
| HGLVTHN |  |  | MALME-3M Melanoma |  |
| HGRLAFG | SK-MEL-28 Melanoma |  |  |  |
| HGRVHRL |  |  |  | H23-Lung |
| HGYRAGG |  |  |  | Hop-62-Lung |
| HIGLGGL |  |  | SF-295 CNS |  |
| HKLARGR |  |  |  | EKVX-Lung |
| HLRGRGV |  |  |  | EKVX-Lung |
| HLRSGFS | DU-145 Prostate |  |  |  |
| HNGRLEV |  |  |  | Hop-62-Lung |
| HPSMGGR |  |  |  | Hop-62-Lung |
| HQAGGVT | UACC62 Melanoma |  |  |  |
| HRGGSQS |  |  |  | Molt-4-Leukemia |
| HRLRSMS | UACC62 Melanoma |  |  |  |
| HRVSESV | OVCAR-5 Ovarian |  |  |  |
| HSESAAV |  |  |  | Hop-62-Lung |
| HSGVSHG |  |  |  | RPMI-8226-Leukemia |
| HSLVSQP |  |  | SNB-19 CNS; also recorded: SF-539 CNS |  |

| Substance | Cell Line (NCI-60 cell line the peptide and its motif are associated with) | Cell Line the peptide is associated with (peptide recovered from phage library selection on this NCI-60 cell line) | Cell Line (NCI-60 cell line the peptide is associated with) | Cell Line with which the peptide (and its tripeptide motif) is associated |
| --- | --- | --- | --- | --- |
| HSRAVAP |  |  |  | SR Leukemia |
| HTRAVSE | OVCAR-8 Ovarian |  |  |  |
| HTYGVRF |  | TK-10 Renal |  |  |
| HVGLLRA |  |  |  | Hop-62-Lung |
| HVKNGRV | SK-MEL-28 Melanoma |  |  |  |
| HVRGRVA | SK-MEL-5 Melanoma |  |  |  |
| HVRSSYA |  | HS 578 T Breast |  |  |
| HVSGGSG |  |  |  | Hop-92-Lung |
| IAASYRG |  |  | LOX-IMVI Melanoma |  |
| IAAVWRS |  |  | HCT-116 Colon |  |
| IAGLAVV |  |  | SNB-75 CNS |  |
| IAMAGLR | SK-MEL-2 Melanoma |  |  |  |
| IDLGRVN | SK-MEL-5 Melanoma |  |  |  |
| IDLVSPG | OVCAR-8 Ovarian |  |  |  |
| IFGAGLR |  |  | LOX-IMVI Melanoma |  |
| IGAASWF |  | MCF-7 Breast |  |  |
| IGASLLG |  |  | SF-268 CNS |  |
| IGAVSGW |  |  | SNB-75 CNS |  |
| IGGREIT |  |  |  | H23-Lung |
| IGGRWVV | SK-OV-3-3 Ovarian |  |  |  |
| IGLRGEN |  |  | SNB-75 CNS |  |
| IGRLLPL |  |  |  | HL-60-Leukemia |

| Substance | Cell Line (NCI-60 cell line the peptide and its motif are associated with) | Cell Line the peptide is associated with (peptide recovered from phage library selection on this NCI-60 cell line) | Cell Line (NCI-60 cell line the peptide is associated with) | Cell Line with which the peptide (and its tripeptide motif) is associated |
| --- | --- | --- | --- | --- |
| IGSGVGV |  | NCI/ADR-RES Breast |  |  |
| IGVLASA | SK-MEL-28 Melanoma |  |  |  |
| IGVRGAV |  |  | MALME-3M Melanoma |  |
| IGVRGFF |  |  |  | Molt-4-Leukemia |
| IGWGVLG |  | BT-549 Breast |  |  |
| IHRGVWG | 786-0 Renal |  |  |  |
| ILSDLVS |  | SN12C Renal |  |  |
| INRGSRE | SK-MEL-28 Melanoma |  |  |  |
| INWAGLS |  |  |  | Hop-92-Lung |
| IRVSAVV |  | HS 578 T Breast |  |  |
| ISGVSDD |  | BT-549 Breast |  |  |
| ISPRSSG |  |  | HCT-15 Colon |  |
| IYGGLVI | SK-MEL-5 Melanoma |  |  |  |
| IYPGAVL | OVCAR-5 Ovarian |  |  |  |
| KAASTED |  | SN12C Renal |  |  |
| KGDGSVR | SK-OV-3-3 Ovarian |  |  |  |
| KGRVSAG |  |  | SNB-19 CNS; also recorded: SF-539 CNS |  |
| KGSVLML |  | NCI/ADR-RES Breast |  |  |
| KMRIAGR |  | SN12C Renal |  |  |
| KRAVGRM | A498 Renal |  |  |  |
| KRESGLG |  |  |  | Hop-62-Lung |
| KSGLRPA |  |  |  | EKVX-Lung |
